Drawing on ChEMBL document CHEMBL1148579, “Influence of various central moieties on the hypolipidemic properties of long hydrocarbon chain diols and diacids” (J Med Chem, 2006), this text covers Activity and IC50 for 14 compounds.

The test system of experiment [1] is Rattus norvegicus. Briefly: Activity against non high density lipoprotein cholesterol level in obese female Zucker rat serum after 1 week at 100 mg/kg (percent change from pre-treatment). It counts as functional.
Experiment [2] relates to Rattus norvegicus. Briefly: Activity against triglyceride level in obese female Zucker rat serum after 2 weeks at 100 mg/kg (percent change from pre-treatment). The format is functional.
For experiment [3], the system named is Rattus norvegicus. Briefly: Activity against high density lipoprotein cholesterol level in obese female Zucker rat serum after 2 weeks at 100 mg/kg (percent change from pre-treatment). It counts as functional.
Experiment [4] relates to Rattus norvegicus. Briefly: Activity against triglyceride level in obese female Zucker rat serum after 1 week at 100 mg/kg (percent change from pre-treatment). It counts as functional.
The test system of experiment [5] is Rattus norvegicus. As to the kind of experiment: Activity against high density lipoprotein cholesterol level in obese female Zucker rat serum after 1 week at 100 mg/kg (percent change from pre-treatment). The format is functional.
Experiment [6] concerns Rattus norvegicus. Briefly: Activity against non high density lipoprotein cholesterol level in obese female Zucker rat serum after 2 weeks at 100 mg/kg (percent change from pre-treatment). The format is functional.
In experiment [7] the test system is Hepatocyte. Briefly: Inhibition of lipid synthesis in primary rat hepatocytes by incorporation radiolabeled acetate into cellular lipids. It counts as functional, cell-based, Sprague-Dawley.
Setting [8] is: Rattus norvegicus, Sprague-Dawley, Hepatocyte, read-out: IC50.

As for `CC(C)(CO)CCCCCCCCCC(C)(C)CO`, the Activity is recorded as -67% in experiment [1]; -82% in experiment [2]; 137% in experiment [3]; -83% in experiment [4]; 189% in experiment [5]; -75% in experiment [6].
In general, IC50 refers to the concentration needed to halve the response being measured. `CC(C)(CO)CCCCS(=O)(=O)CCCCC(C)(C)CO`: the Activity in experiment [1] is listed as -46%; in experiment [2] it was -19%; in experiment [3], -13%; in experiment [4] it was -34%; in experiment [5] it was 15%; in experiment [6], -34%. In experiment [7] (setting [8]), the IC50 is 8.9 µM.
Turning to `CC(CCCCSCCCCC(C)(C(=O)O)c1ccccc1)(C(=O)O)c1ccccc1` (stereo not drawn), in experiment [7] (setting [8]), the IC50 came to 26 µM.
For `CC(C)(CO)CCC[S+]([O-])CCCC(C)(C)CO`, the Activity in experiment [1] is recorded as 40%; in experiment [2], -5%; in experiment [3] it was 93%; in experiment [4] it was -36%; in experiment [5], 54%; in experiment [6], 12%. The IC50 result in experiment [7] (hepatocyte) is “Not Active”.
Consider `CC(C)(CO)CCCC[S+]([O-])CCCCC(C)(C)CO`, for which the Activity is reported as 56% in experiment [1]; -35% in experiment [2]; 233% in experiment [3]; -37% in experiment [4]; 127% in experiment [5]; 64% in experiment [6]. Besides, the IC50 result in experiment [7] (hepatocyte) was “Not Active”.
As to `CC(CO)(CCCSCCCC(C)(CO)c1ccccc1)c1ccccc1` (stereo not drawn), the Activity was -26% in experiment [1]; 1% in experiment [2]; 2% in experiment [3]; -18% in experiment [4]; 9% in experiment [5]; 8% in experiment [6]. Further, the IC50 in experiment [7] (setting [8]) is 41 µM.
Consider `CC(CO)(CCCCSCCCCC(C)(CO)c1ccccc1)c1ccccc1` (stereo not drawn), for which the half-inhibitory concentration (IC50) in experiment [7] (setting [8]) was determined as 64 µM.
On to `CC(C)(CO)CCCCNC(=O)NCCCCC(C)(C)CO`, for which the Activity in experiment [1] is listed as -33%; in experiment [2], -31%; in experiment [3], 92%; in experiment [4] it was -42%; in experiment [5], 66%; in experiment [6] it was -5%. For the same compound, the IC50 in experiment [7] (setting [8]) came out at 3.4 µM.
Take `CC(C)(CO)CCCCNC(=O)OCCCCC(C)(C)CO`: the Activity was 10% in experiment [1]; -4% in experiment [2]; 65% in experiment [3]; -52% in experiment [4]; 60% in experiment [5]; 84% in experiment [6]. In addition, the IC50 in experiment [7] (setting [8]) turned out to be 0.8 µM.
Take `CC(C)(CO)CCCCOC(=O)CCCCC(C)(C)CO`: the Activity in experiment [1] is given as -25%; in experiment [2], 7%; in experiment [3], 23%; in experiment [4], -20%; in experiment [5], 18%; in experiment [6], -5%. The IC50 in experiment [7] (setting [8]) amounted to 13 µM.
On to `CC(C)(CCCCCC(=O)CCCCCC(C)(C)C(=O)O)C(=O)O`, for which the Activity was -98% in experiment [1]; -94% in experiment [2]; 168% in experiment [3]; -93% in experiment [4]; 72% in experiment [5]; -99% in experiment [6].
With `CC(C)(CO)CCCCC(O)CCCCC(C)(C)CO`, the Activity in experiment [1] is recorded as -61%; in experiment [2] it was -46%; in experiment [3] it was 222%; in experiment [4], -70%; in experiment [5] it was 219%; in experiment [6], -15%. The IC50 in experiment [7] (setting [8]) amounted to 6.4 µM.
For `CC(C)(CO)CCCCC(CO)CCCCC(C)(C)CO`, the Activity in experiment [1] is recorded as -43%; in experiment [2], -23%; in experiment [3], -2%; in experiment [4], -52%; in experiment [5], 2%; in experiment [6] it was -12%. Further, the IC50 in experiment [7] (setting [8]) was determined as 15 µM.
As to `CC(CO)(CCCC[S+]([O-])CCCCC(C)(CO)c1ccccc1)c1ccccc1` (stereo not drawn), the IC50 in experiment [7] (setting [8]) stood at 81 µM.
